How the values were obtained:
Histamine H1 receptor = target: T1, Histamine H1 receptor (Cavia porcellus, UniProt P31389); assay: Histamine H1 receptor binding study; details: test concentration typically 10 μM; read-out: H1 Inh. [%]
T1 construct: from tissue
Text: Table 5 summarises the inhibitory values on the above receptors:

Sigma receptor = Sigma receptor binding study; details: test concentration typically 10 μM
Protocol: (§1) The tests were typically carried out at a test concentration of 10 μM.

[1] = test system: permanent focal cerebral ischaemia (MCAO); assay: Stroke model in the rat, permanent focal cerebral ischaemia by occlusion of the arteria cerebri media (MCAO); type: in vivo
Text: A permanent focal cerebral ischaemia was induced by surgical occlusion of the arteria cerbri media (MCAO) (based on A. Tamura, D. I. Graham, J. McCulloch and G. M. Teasdale, J. Cereb. Blood Flow Metab. 1 (1981) 53-60).

AMPA receptor = assay: Inhibition of the cainate-induced signal at the AMPA receptor, electrophysiology on neuronal cells (Patch-Clamp-Method); type: cell-based; details: test concentration of 100 μM
Protocol: The tests were carried out at a test concentration of 100 μM.

[2] = test system: "Na+ channel site 2"-binding site; assay: Binding to the Na+ channel site 2 binding site ([3H]-BTX); details: test concentration typically 10 μM
Protocol: as §1

T1 sequence (P31389 whole entry): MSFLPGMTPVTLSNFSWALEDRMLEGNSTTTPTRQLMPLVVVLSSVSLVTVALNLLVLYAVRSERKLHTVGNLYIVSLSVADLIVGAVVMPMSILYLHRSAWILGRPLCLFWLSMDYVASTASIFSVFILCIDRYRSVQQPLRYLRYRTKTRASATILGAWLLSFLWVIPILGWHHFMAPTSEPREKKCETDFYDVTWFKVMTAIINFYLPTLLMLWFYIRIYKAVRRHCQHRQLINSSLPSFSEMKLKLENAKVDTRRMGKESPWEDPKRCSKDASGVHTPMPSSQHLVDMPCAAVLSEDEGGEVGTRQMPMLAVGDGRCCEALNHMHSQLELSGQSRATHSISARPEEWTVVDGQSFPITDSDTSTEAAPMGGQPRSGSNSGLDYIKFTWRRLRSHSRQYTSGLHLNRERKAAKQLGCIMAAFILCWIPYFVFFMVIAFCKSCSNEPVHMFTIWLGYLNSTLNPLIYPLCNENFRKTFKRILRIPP

SMILES | inhibition at 10 µM (Histamine H1 receptor) [%] | Sigma Inh. [%] (Sigma receptor) | Na+-channel Inh. [%] ([3H]-BTX) [2] | volume of the lesion [1] | AMPA Inh. [%] (inhibiting the cainate-induced signal at the AMPA receptor) (AMPA receptor)
CN(C)CCOc1ccccc1-c1nc(-c2cccc(Br)c2)no1 [Example 48, 5-{2-[2-(N,N-Dimethylamino)-ethyl]oxy-phenyl}-3-(3-bromophenyl)-1,2,4-oxadiazole] | 78 | 74 | 85 | – | 85
CN(C)CCOc1ccccc1-c1nc(-c2ccco2)no1 [Example 57, 5-{2-[2-(N,N-Dimethylamino)-ethyl]oxy-phenyl}-3-(2-furyl)-1,2,4-oxadiazole] | 90 | 49 | 54 | – | 51
CN(C)CCOc1ccccc1-c1nc(-c2cccc(Cl)c2)no1 [Example 59, 5-{2-[2-(N,N-Dimethylamino)-ethyl]oxy-phenyl}-3-(3-chlorophenyl)-1,2,4-oxadiazole] | 84 | 82 | 70 | – | 54
CN(C)CCOc1ccccc1-c1nc(-c2ccccc2Br)no1 [Example 64, 5-{2-[2-(N,N-Dimethylamino)-ethyl]oxy-phenyl}-3-(2-bromo-phenyl)-1,2,4-oxadiazole] | 88 | 76 | 99 | – | 65
Cc1cccc(-c2nc(-c3ccccc3)no2)c1OCCN(C)C [Example 68, 5-{2-[2-(N,N-Dimethylamino)-ethyl]oxy-3-methyl-phenyl}-3-phenyl-1,2,4-oxadiazole] | 74 | 79 | 100 | – | 81

Now from value to molecule, other results behind:

inhibition at 10 µM (Histamine H1 receptor) [%] | Sigma Inh. [%] (Sigma receptor) | Na+-channel Inh. [%] ([3H]-BTX) [2] | SMILES | volume of the lesion [1] | AMPA Inh. [%] (inhibiting the cainate-induced signal at the AMPA receptor) (AMPA receptor)
99 | 62 | 86 | CN(C)CCOc1ccccc1-c1nc(-c2ccccc2)no1 [Example 2, 5-{2-[2-(N,N-dimethylamino)ethyl]oxy-phenyl}-3-phenyl-1,2,4-oxadiazole] | reduce the volume of the lesion significantly | 86
90 | 54 | 92 | Cc1ccc(-c2nc(-c3ccccc3)no2)c(OCCN(C)C)c1 [Example 67, 5-{2-[2-(N,N-Dimethylamino)-ethyl]oxy4-methyl-phenyl}-3-phenyl-1,2,4-oxadiazole] | – | 28

Reference: patent US6277872A, “Oxadiazoles, processes for their preparation and their use as medicaments” (Boehringer Ingelheim KG, priority 1996, dated 2001)
